From paper PMC9033093, “Antiplasmodial Activity of Vachellia xanthophloea (Benth.) P.J.H. Hurter (African Fever Tree) and Its Constituents” (Pharmaceuticals, 2022)
Several values for one entry are separate records, joined by “and”; a condition that tells them apart may be missing. Equal entries are not always repeated. Where two headings read alike, the source gives them in different places.

Columns and labels:
P. falciparum = details: cited from earlier work
[1] = tested on: HeLa (human cervix adenocarcinoma) cells; test: In vitro cytotoxicity, resazurin assay; type: cell-based; details: for IC50: Homo sapiens, HeLa, positive control
Procedure: (§1) The cytotoxicity of the compounds/extracts against HeLa (human cervix adenocarcinoma) cells (Cellonex, South Africa) was evaluated by plating the cells at a density of 2 × 10^4 cells per well in a DMEM medium supplemented with 10% foetal bovine serum and penicillin/streptomycin/amphotericin B antibiotics in 96-well plates. After incubating for 24 h at 37 °C in a humidified 5% CO2 incubator, the test samples were added at a final concentration of 50 µg/mL or 10 µg/mL to the cells in triplicate wells (final volume per well was 200 µL) and further incubated or 24 h. Subsequently, a 20 µL resazurin stock solution (0.6 mM resazurin in phosphate-buffered saline) was added to each well and, after a 4 h incubation, the fluorescence (Exc560/Emm590) was measured on a Spectramax M3 plate reader. The percentage cell viability in the treated wells relative to the wells containing the untreated control cells was calculated from the fluorescence values after subtracting the background readings obtained from the empty wells. Emetine was used as the positive control.

[2] = tested on: Plasmodium falciparum 3D7 clone; test: In vitro antiplasmodial activity, parasite lactate dehydrogenase (pLDH) assay; details: for viability at 10 µg/mL: 3D7, read-out: Viability % ± SD at 10 μg/mL; for viability at 50 µg/mL: 3D7, read-out: Viability % ± SD at 50 μg/mL
Procedure: Malaria parasites (Plasmodium falciparum 3D7 clone) were maintained in an RPMI 1640 medium containing 2 mM L-glutamine and 25 mM Hepes (Lonza). The medium was further supplemented with 5% Albumax II, 20 mM glucose, 0.65 mM hypoxanthine, 60 µg/mL gentamycin, and 2–4% haematocrit human red blood cells. The parasites were cultured at 37 °C under an atmosphere of 5% CO2, 5% O2, and 90% N2 in a sealed T75 culture flask.
For the antiplasmodial activity, the extracts and isolated compounds were first tested at 50 µg/mL and 10 µg/mL in duplicate experiments. IC50 values determined from the dose-response curves were evaluated for the compounds only showing < 50% viability without cytotoxicity at 10 µg/mL. For the IC50 screening, a range of concentrations of the extracts and compounds starting from 100 µg/mL and extended by 3-fold serial dilution were tested in triplicate and standard deviations (SD) were derived where applicable. The parasite viability was determined by measuring the activity of parasite lactate dehydrogenase (pLDH) as described by Makler et al.. Serial dilutions of the extracts and compounds were added to the in vitro cultures of P. falciparum (3D7 clone) in 96-well plates (1% haematocrit, 2% parasitaemia) and incubated for 48 h. To 125 µL solutions containing a mixture of Malstat (0.18 M lactic acid, 0.13 mM 3-acetylpyridine adenine dinucleotide, 0.16% Triton X-100, and 44 mM Tris, pH 9) and NBT/PES (0.39 mM nitro blue tetrazolium and 0.05 mM phenazine ethosulfate), 20 µL of the incubated culture was then added in a fresh 96-well plate. […] The % parasite viability, as indicated by the pLDH activity in the treated wells compared with the untreated controls, was calculated from the absorbance values for each compound/extract. The parasitised RBCs in the absence of test compounds/drug were taken as the untreated control with 100% viability.

[3] = In vitro cytotoxicity, resazurin assay; type: cell-based, human; details: human, 24 h; for viability at 24 h, 10 µg/mL: HeLa cell viability at 10 µg/mL, read-out: Viability % ± SD at 10 μg/mL; for viability at 24 h, 50 µg/mL: HeLa cell viability at 50 µg/mL, read-out: Viability % ± SD at 50 μg/mL
Procedure: as §1

**Q.** With pinoresinol [Pinoresinol (12)] as the compound, how does the “activity against P. falciparum (previously reported)” value (P. falciparum) read?
**A.** inactive

**Q.** For CC[C@H]1CN2CCc3cc(OC)c(OC)cc3[C@@H]2C[C@@H]1C[C@H]1NCCc2cc(OC)c(OC)cc21 [Emetine, reference compound], which IC50 ([1]; printed in the 10 µg/mL column) is on record?
**A.** 40 nM

**Q.** And the IC50 ([1]; printed in the 50 µg/mL column)?
**A.** 33 nM

**Q.** For CCN(CC)CCCC(C)Nc1ccnc2cc(Cl)ccc12 (stereo not shown) [Chloroquine, reference compound], which IC50 ([2]; 3D7, 48 h) is on record?
**A.** 14 nM

**Q.** And the IC50 ([2]; 3D7, read-out: IC50 values ranged)?
**A.** 10 to 50 nM

**Q.** For COc1c(-c2ccc(O)c(O)c2)oc2cc(O)cc(O)c2c1=O [3-O-Methylquercetin (4), 3-O-methylquercetin], which viability at 10 µg/mL [2] is on record?
**A.** 82.9 ± 3%

**Q.** What about the viability at 50 µg/mL [2] of the same compound?
**A.** 21.9 ± 1.5%

**Q.** What about the viability at 24 h, 10 µg/mL ([3]; HeLa cells) of the same compound?
**A.** 57.9 ± 5.2%

**Q.** And the viability at 24 h, 50 µg/mL ([3]; HeLa cells)?
**A.** 4.5 ± 0.1%

**Q.** For O=C1c2c(O)cc(O)cc2O[C@H](c2ccc(O)c(O)c2)[C@H]1O [Dihydroquercetin (6), dihydroquercetin], which IC50 ([2]; 3D7, 48 h) is on record?
**A.** 27.6 µg/mL and 90.7 µM

**Q.** Which “antiplasmodial activity of common dietary flavonoids (reported)” value (from here on “antiplasmodial activity … (reported)”) (P. falciparum) does the source give for O=c1cc(-c2ccc(O)cc2)oc2cc(O)cc(O)c12 [apigenin] here?
**A.** moderate to weak antiplasmodial activity

**Q.** What does the source list for COC(=O)c1cc(O)c(O)c(O)c1 [Methyl gallate (9), methyl gallate]?
**A.** IC50 ([2]; 3D7, 48 h): 1.2 µg/mL and 6.52 µM; viability at 10 µg/mL [2]: 26.9 ± 0.7%; viability at 50 µg/mL [2]: 17.7 ± 1.5%; antiplasmodial activity and selectivity (reported by other investigators) (P. falciparum): good selective antiplasmodial activity; combination with quinine (P. falciparum): act in synergy with quinine; viability at 24 h, 10 µg/mL [3]: 68%; viability at 24 h, 50 µg/mL [3]: 2 ± 0.2%; Viability % ± SD at 10 μg/mL ([1]; HeLa cell viability at 10 µg/mL, 24 h): 68.6 ± 2.0%

**Q.** Which IC50 ([2]; 3D7, 48 h) does the source give for O=c1c(O)c(-c2ccc(O)cc2)oc2cc(O)cc(O)c12 [Kaempferol (10), kaempferol] here?
**A.** 25 µg/mL and 87.3 µM

**Q.** What about the “antiplasmodial activity … (reported)” value (P. falciparum) of the same compound?
**A.** moderate to weak antiplasmodial activity

**Q.** For Oc1cc(O)c2c(c1)O[C@H](c1cc(O)c(O)c(O)c1)[C@@H](O)C2 [gallocatechin (8), gallocatechin], which “activity against P. falciparum (previously reported)” value (P. falciparum) is on record?
**A.** inactive

**Q.** For O=c1c(O)c(-c2cc(O)c(O)c(O)c2)oc2cc(O)cc(O)c12 [myricetin, reference compound], which “antiplasmodial activity … (reported)” value (P. falciparum) is on record?
**A.** moderate to weak antiplasmodial activity

**Q.** With O=c1c(O)c(-c2ccc(O)c(O)c2)oc2cc(O)cc(O)c12 [quercetin] as the compound, how does the “antiplasmodial activity … (reported)” value (P. falciparum) read?
**A.** moderate to weak antiplasmodial activity

**Q.** With C[C@]1(O)CC[C@H]2[C@@H]3CCC4=CC(=O)CC[C@@H]4[C@H]3CC[C@@]21C [lutenin, reference compound] as the compound, how does the “antiplasmodial activity … (reported)” value (P. falciparum) read?
**A.** moderate to weak antiplasmodial activity
